{
  "source": "patent US20210123061A1",
  "about": "“METHODS AND COMPOSITIONS FOR TREATING INFLAMMATORY DISEASE OR DISORDER” (THE BRIGHAM AND WOMEN'S HOSPITAL, INC., priority 2018, published 2021)",
  "test_system": "RXXpS/T, RPS6-pSer235/236, PRAS40-pThr246",
  "test": "Immunoblot of RXXpS/T motif, RPS6 and PRAS40 phosphorylation in macrophages",
  "type": "cell-based, human",
  "experimental": "FIGS. 6A-6C show phospho-proteomics identified RSK substrates in human PBMC-derived macrophages. (FIG. 6A) Scheme of phospho-proteomics. Human PBMC-derived macrophages were treated with DMSO or BI-D1870 for two hours followed by IFN-γ stimulation for subsequent proteolysis and phospho-peptide enrichment using the anti-RXXpS/T antibody strategy. (FIG. 6B) Cell lysates were subjected to immunoblot analysis with anti-RPS6-pSer235/236, anti-RPS6, anti-PRAS40-pThr246, anti-PRAS40, or anti-Tubulin. N=2 donors. […] The average shortest distance of the same number of randomly selected genes to disease genes was calculated for N=250 realizations in order to compare the average shortest distance value to random expectation. Empirical p-values were calculated based on 100 degree-preserved randomizations of the first neighbor networks.\nFIGS. 15A-15C show RXXpS/T pattern in human IFN-γ-stimulated macrophages. (FIG. 15A) Human PBBMC-derived macrophages were treated with DMSO or 10 μM BI-D1870 for 2 hours followed by stimulation with IFN-γ for 1 hour. Cell lysates were subjected to immunoblot analysis with anti-RXXpS/T antibody. (FIG. 15B) Four ellipse Venn diagram showing numbers of detected phospho-peptides in each sample. (FIG. 15C) A flow chart of screening for RSK-substrates in human macrophages. We identified 24 candidates including RPS6 and AKT1S1/PRAS40 as RSK-substrates. […]",
  "data": [
    {"molecule": "CC(C)CCN1c2nc(Nc3cc(F)c(O)c(F)c3)ncc2N(C)C(=O)C1C", "note": "(centres unmarked) [BI-D1870]", "values": [
      {"measurement": "anti-RXXpS/T immunoblot signal intensities", "setting": "10 μM for 2 hours, then IFN-γ 1 hour", "result": "decrease in signal intensities"},
      {"measurement": "RPS6-pSer235/236 and PRAS40-pThr246 immunoblot", "setting": "IFN-γ versus RSK-inhibition, two donors", "result": "confirming the changes"}
    ]}
  ]
}
